One may read the IC50 as the concentration at which inhibition is half-maximal. Low readings indicate inhibition by little substance, high ones a need for much substance.

Consider 22 molecules from patent US20210253575A1, “PYRROLIDINE AMINE COMPOUNDS FOR THE TREATMENT OF AUTOIMMUNE DISEASE” (Hoffmann-La Roche Inc., priority 2018, published 2021).

The experiment has as its target T1, human TLR9 (Homo sapiens, UniProt Q9NR96).
T1 sequence (Q9NR96 26-1032): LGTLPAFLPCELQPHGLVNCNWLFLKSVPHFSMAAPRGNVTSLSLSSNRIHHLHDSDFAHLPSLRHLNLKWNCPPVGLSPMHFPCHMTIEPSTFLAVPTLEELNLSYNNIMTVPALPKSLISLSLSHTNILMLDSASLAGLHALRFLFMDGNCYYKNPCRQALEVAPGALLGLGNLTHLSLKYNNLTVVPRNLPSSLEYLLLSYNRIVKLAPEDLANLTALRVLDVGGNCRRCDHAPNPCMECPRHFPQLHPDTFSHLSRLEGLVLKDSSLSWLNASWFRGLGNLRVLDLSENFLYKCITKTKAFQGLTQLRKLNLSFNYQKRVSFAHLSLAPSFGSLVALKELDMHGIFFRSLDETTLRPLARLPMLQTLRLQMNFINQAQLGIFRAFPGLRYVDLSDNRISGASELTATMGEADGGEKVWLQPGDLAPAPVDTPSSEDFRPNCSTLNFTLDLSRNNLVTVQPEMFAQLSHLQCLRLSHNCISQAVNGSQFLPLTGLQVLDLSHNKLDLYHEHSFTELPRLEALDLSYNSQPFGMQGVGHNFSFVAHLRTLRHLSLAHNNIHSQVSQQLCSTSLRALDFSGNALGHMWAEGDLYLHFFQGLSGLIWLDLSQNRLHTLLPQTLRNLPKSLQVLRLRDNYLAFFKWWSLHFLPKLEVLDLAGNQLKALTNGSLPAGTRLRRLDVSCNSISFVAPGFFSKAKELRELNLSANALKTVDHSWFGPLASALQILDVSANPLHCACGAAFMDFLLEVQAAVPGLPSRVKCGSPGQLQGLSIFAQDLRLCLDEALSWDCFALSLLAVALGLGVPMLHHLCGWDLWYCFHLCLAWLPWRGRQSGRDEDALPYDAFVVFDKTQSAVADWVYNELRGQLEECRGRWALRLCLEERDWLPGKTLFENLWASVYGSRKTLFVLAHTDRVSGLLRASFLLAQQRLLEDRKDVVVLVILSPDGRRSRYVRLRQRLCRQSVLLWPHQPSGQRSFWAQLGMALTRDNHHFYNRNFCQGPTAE
The experiment can be described thus: HEK293-Blue-hTLR-9 cells assay (SEAP reporter, ODN2006 stimulation). Type of experiment: cell-based. The settings on record: HEK293-Blue-hTLR9 cells, ODN2006 ligand, 20 hrs incubation. The method, then: The following tests were carried out in order to determine the activity of the compounds of formula (I) in HEK293-Blue-hTLR-7/8/9 cells assay.
HEK293-Blue-hTLR-9 Cells Assay:
A stable HEK293-Blue-hTLR-9 cell line was purchased from InvivoGen (Cat. #: hkb-htlr9, San Diego, Calif., USA). These cells were originally designed for studying the stimulation of human TLR9 by monitoring the activation of NF-κB. A SEAP (secreted embryonic alkaline phosphatase) reporter gene was placed under the control of the IFN-β minimal promoter fused to five NF-κB and AP-1-binding sites. The SEAP was induced by activating NF-κB and AP-1 via stimulating HEK-Blue hTLR9 cells with TLR9 ligands. Therefore the reporter expression was declined by TLR9 antagonist under the stimulation of a ligand, such as ODN2006 (Cat. #: tlrl-2006-1, Invivogen, San Diego, Calif., USA), for incubation of 20 hrs. The cell culture supernatant SEAP reporter activity was determined using QUANTI-Blue™ kit (Cat. #: rep-qb1, Invivogen, San Diego, Calif., USA) at a wavelength of 640 nm, a detection medium that turns purple or blue in the presence of alkaline phosphatase.
HEK293-Blue-hTLR9 cells were incubated at a density of 250,000˜450,000 cells/mL in a volume of 170 μL in a 96-well plate in Dulbecco's Modified Eagle's medium (DMEM) containing 4.5 g/L glucose, 50 U/mL penicillin, […], […], 2 mM L-glutamine, 10% (v/v) heat-inactivated fetal bovine serum with addition of 20 μL test compound in a serial dilution in the presence of final DMSO at 1% and 10 μL of 20 uM ODN2006 in above DMEM, perform incubation under 37° C. in a CO2incubator for 20 hrs. Then 20 μL of the superatant from each well was incubated with 180 μL Quanti-blue substrate solution at 37° C. for 2 hrs and the absorbance was read at 620˜655 nm using a spectrophotometer. The signalling pathway that TLR9 activation leads to downstream NF-κB activation has been widely accepted, and therefore similar reporter assay was modified for evaluating TLR9 antagonist.
Molecule `CC[C@@H]1CN(c2ccc(C#N)c3ncccc23)C[C@H]1CN1CCC2(CCNCC2)CC1` (relative stereo) [Example 15, 5-[Trans-3-(3,9-diazaspiro[5.5]undecan-3-ylmethyl)-4-ethyl-pyrrolidin-1-yl]quinoline-8-carbonitrile] returned an IC50 of 32 nM. That is a double-digit nanomolar value.
In the case of `FC(F)(F)c1ccc(N2C[C@@H](CN3CCC4(CCNC4)C3)[C@H](C(F)(F)F)C2)c2nccnc12` (relative stereo) [Example 19, 5-[Trans-3-(2,7-diazaspiro[4.4]nonan-2-ylmethyl)-4-(trifluoromethyl)pyrrolidin-1-yl]-8-(trifluoromethyl)quinoxaline], half-maximal inhibition (IC50) was put at 815 nM.
On to `C[C@@H]1CN(c2ccc(C(F)(F)F)c3nccnc23)C[C@H]1CN1CCC2(CCNCC2)CC1` (relative stereo) [Example 21, 3-[[Trans-4-methyl-1-[8-(trifluoromethyl)quinoxalin-5-yl]pyrrolidin-3-yl]methyl]-3,9-diazaspiro[5.5]undecane], for which the half-maximal inhibitory concentration (IC50) was 294 nM.
In the case of `N#Cc1ccc(N2C[C@@H](CN3CCC4(CCNCC4)CC3)[C@H](C(F)F)C2)c2cccnc12` (relative stereo) [Example 27, 5-[Trans-3-(3,9-diazaspiro[5.5]undecan-3-ylmethyl)-4-(difluoromethyl)pyrrolidin-1-yl]quinoline-8-carbonitrile] it was 32 nM; in that of `N#Cc1ccc(N2C[C@@H](CN3CCC4(CCNCC4)CC3)[C@H](C3CC3)C2)c2cccnc12` (relative stereo) [Example 28, 5-[Trans-3-cyclopropyl-4-(3,9-diazaspiro[5.5]undecan-3-ylmethyl)pyrrolidin-1-yl]quinoline-8-carbonitrile], 39 nM.
In the case of `CC[C@@H]1CN(c2ccc(C#N)c3ncccc23)C[C@H]1CN1CCC2(CCNC2)C1` (relative stereo) [Example 29, 5-[Trans-3-(2,7-diazaspiro[4.4]nonan-2-ylmethyl)-4-ethyl-pyrrolidin-1-yl]quinoline-8-carbonitrile] it was 56 nM; in that of `C[C@@H]1CN(c2ccc(C(F)(F)F)c3nccnc23)C[C@H]1CN1CCC(N2CCCCC2)CC1` (relative stereo) [Example 33, 5-[Trans-3-methyl-4-[[4-(1-piperidyl)-1-piperidyl]methyl]pyrrolidin-1-yl]-8-(trifluoromethyl)quinoxaline], 863 nM; in that of `N#Cc1ccc(N2C[C@@H](CN3CCC4(CCNC4)C3)[C@H](C(F)F)C2)c2cccnc12` (relative stereo) [Example 34, 5-[Trans-3-(2,7-diazaspiro[4.4]nonan-2-ylmethyl)-4-(difluoromethyl)pyrrolidin-1-yl]quinoline-8-carbonitrile], 85 nM.
As for `CC(C)[C@@H]1CN(c2ccc(C#N)c3ncccc23)C[C@H]1CN1CCC2(CCNCC2)CC1` (relative stereo) [Example 36, 5-[Trans-3-(3,9-diazaspiro[5.5]undecan-3-ylmethyl)-4-isopropyl-pyrrolidin-1-yl]quinoline-8-carbonitrile], the figure is 50 nM; as for `CC(C)[C@@H]1CN(c2ccc(C#N)c3ncccc23)C[C@H]1CN1CCC2(CCNC2)C1` (relative stereo) [Example 44, 5-[Trans-3-(2,7-diazaspiro[4.4]nonan-2-ylmethyl)-4-isopropyl-pyrrolidin-1-yl]quinoline-8-carbonitrile], 91 nM; as for `N#Cc1ccc(N2CC(CN3CCC(N)CC3)C3(CC3)C2)c2nccnc12` (single isomer, unassigned) [Example 68A, 8-[7-[(4-Amino-1-piperidyl)methyl]-5-azaspiro[2.4]heptan-5-yl]quinoxaline-5-carbonitrile], 71 nM.
On to `N#Cc1ccc(N2C[C@H](CN3CCC4(CCNCC4)CC3)[C@@H](C(F)(F)F)C2)c2nccnc12` [Example 1, 8-[(3S,4R)-3-(3,9-diazaspiro[5.5]undecan-3-ylmethyl)-4-(trifluoromethyl)pyrrolidin-1-yl]quinoxaline-5-carbonitrile], for which the concentration for half-maximal inhibition (IC50) was found to be 106 nM. The IC50 values of the last two molecules are within 1.5-fold of each other.
As for `N#Cc1ccc(N2C[C@H](CN3CCC4(CCNCC4)CC3)[C@@H](C(F)(F)F)C2)c2cccnc12` [Example 2, 5-[(3S,4R)-3-(3,9-diazaspiro[5.5]undecan-3-ylmethyl)-4-(trifluoromethyl)pyrrolidin-1-yl]quinoline-8-carbonitrile], the figure is 76 nM.
As for `N#Cc1ccc(N2C[C@H](CN3CCC4(CCNC4)C3)[C@@H](C(F)(F)F)C2)c2nccnc12` (stereo partly drawn) [Example 5, 8-[(3S,4R)-3-(2,7-diazaspiro[4.4]nonan-2-ylmethyl)-4-(trifluoromethyl)pyrrolidin-1-yl]quinoxaline-5-carbonitrile], the figure is 137 nM; as for `N#Cc1ccc(N2C[C@H](CN3CCC4(CCCNC4)C3)[C@@H](C(F)(F)F)C2)c2cccnc12` (stereo partly drawn) [Example 6, 5-[(3S,7R)-3-(2,9-diazaspiro[4.5]decan-2-ylmethyl)-4-(trifluoromethyl)pyrrolidin-1-yl]quinoline-8-carbonitrile], 136 nM.
As for `CC1(N)CCN(CC2CN(c3ccc(C#N)c4nccnc34)CC23CC3)CC1` (stereo not shown) [Example 7, 8-[7-[(4-Amino-4-methyl-1-piperidyl)methyl]-5-azaspiro[2.4]heptan-5-yl]quinoxaline-5-carbonitrile], the figure is 77 nM; as for `N#Cc1ccc(N2C[C@H](CN3CC4(CCCNC4)C3)[C@@H](C(F)(F)F)C2)c2cccnc12` [Example 8, 5-[(3S,7R)-3-(2,8-diazaspiro[3.5]nonan-2-ylmethyl)-4-(trifluoromethyl)pyrrolidin-1-yl]quinoline-8-carbonitrile], 113 nM.
Take `N#Cc1ccc(N2C[C@H](CN3CCC4(CCNC4)C3)[C@@H](C(F)(F)F)C2)c2cccnc12` (stereo partly drawn) [Example 9, 5-[(3S,4R)-3-(2,7-diazaspiro[4.4]nonan-2-ylmethyl)-4-(trifluoromethyl)pyrrolidin-1-yl]quinoline-8-carbonitrile]: the IC50 is 104 nM.
As for `N#Cc1ccc(N2C[C@H](CN3CCC(N4CCCCC4)CC3)[C@@H](C(F)(F)F)C2)c2cccnc12` [Example 10, 5-[(3S,4R)-3-[[4-(1-piperidyl)-1-piperidyl]methyl]-4-(trifluoromethyl)pyrrolidin-1-yl]quinoline-8-carbonitrile], the figure is 834 nM; as for `N#Cc1ccc(N2CC(CN3CCC(N4CCCCC4)CC3)C3(CC3)C2)c2nccnc12` (stereo not shown) [Example 11, 8-[7-[[4-(1-Piperidyl)-1-piperidyl]methyl]-5-azaspiro[2.4]heptan-5-yl]quinoxaline-5-carbonitrile], 125 nM.
In the case of `CC1(N)CCN(C[C@H]2CN(c3ccc(C#N)c4nccnc34)C[C@@H]2C(F)(F)F)CC1` [Example 12, 8-[(3S,4R)-3-[(4-amino-4-methyl-1-piperidyl)methyl]-4-(trifluoromethyl)pyrrolidin-1-yl]quinoxaline-5-carbonitrile] it was 219 nM; in that of `N#Cc1ccc(N2CC(CN3CCC4(CCCNC4)CC3)C3(CC3)C2)c2nccnc12` (stereo not shown) [Example 13, 8-[7-(2,9-Diazaspiro[5.5]undecan-9-ylmethyl)-5-azaspiro[2.4]heptan-5-yl]quinoxaline-5-carbonitrile], 60 nM.
